Assay results published in article PMC12040169 (PLOS Biology, 2025).

Assay: in vitro
Conditions: human, hela cells, % viability

SMILES | viability at 28.5 h, 10 µM [%]
O=C(Nc1cccc(F)c1)c1cc2ccccc2cc1O [CBK016863] | 102
O=C(Nc1cccc(Cl)c1)c1cc2cc(O)ccc2cc1O [CBK016894] | 98.2
O=C1NCCN1c1cccc(Cl)c1 [CBK016915] | 88.3
Cc1csc2c(NC(C)C)ncnc12 [CBK017059] | 95.7
Cc1csc2ncnc(NCCc3ccccn3)c12 [CBK017060] | 67.1
CSc1nnc(-c2ccc(C(C)(C)C)cc2)n1Cc1ccco1 [CBK017071] | 92.1
Cc1cc(NC(=O)CCN2CCCCC2)no1 [CBK017079] | 99
O=C1NCCCCC1N1CCS(=O)(=O)CC1 (stereo not drawn) [CBK017083] | 99.2
CC1CN(C(=O)NC(=O)c2ccc(-c3csnn3)cc2)CC(C)O1 (stereo not drawn) [CBK017091] | 87.7
CSc1sc(NC(=O)Nc2cccc(C(F)(F)F)c2)cc1C#N [CBK017114] | 93.9
O=C(O)c1cccc2c1Sc1ccccc1O2 [CBK017129] | 90.8
Nc1cc(Cl)cc2[nH]c(=O)c3cc(Cl)ccc3c12 [CBK017144] | 73.3
O=C(Nc1ccc(F)cc1)OCC1COc2ccccc2C1 (stereo not drawn) [CBK017146] | 85.5
O=C1Nc2ccccc2C12NN=C(c1ccccc1)S2 (stereo not drawn) [CBK017221] | 100
CCOC(=O)C(N)CSC1CC(=O)N(c2ccc(Br)cc2)C1=O (stereo not drawn) [CBK017250C] | 102
O=c1cc(NCc2ccncc2)c2ccccc2o1 [CBK017259] | 93.5
CS(=O)(=O)c1nc2cccnc2s1 [CBK017260] | 95.2
O=C1CSC(c2cccnc2)N1CCc1ccccn1 (stereo not drawn) [CBK017292] | 96.7
Cc1cc(C)[n+]2c(n1)N(c1ccccc1)CC2 [CBK017327G] | 80.7
CCn1c(=O)c2c(cnn2C)c2ccccc21 [CBK017345] | 81.3
N#Cc1[nH]nnc1-c1ccc(OC(F)(F)F)cc1 [CBK017386] | 95.1
COc1cc(/C=C(/C#N)C(N)=O)cc(Br)c1O [CBK017409] | 88.1
Nc1nnc(Nc2ccc(Cl)cc2)[nH]1 [CBK017433] | 91.7

SMILES | viability at 28.5 h, 10 µM [%]
CCCCCc1c(C)nc(-c2ccccn2)nc1O [CBK017441] | 86.4
Nc1ncnc(Nc2cccc(F)c2)n1 [CBK017447] | 91.7
Cc1cc(C2(C(F)(F)F)C=C3c4ccccc4CC(C)(C)N3C2=O)cc(C)c1O (stereo not drawn) [CBK017463] | 99.2
OC[C@@H](c1ccccc1)N1CC[C@H]2c3ccc(Br)cc3CC[C@H]21 [CBK017507C] | 84.4
CC(C)Cn1cnc2c(Cl)nc3ccccc3c21 [CBK017530] | 86.4
CC(=O)NC[C@H]1CN(c2ccc(C3=CC[S+]([O-])CC3)c(F)c2)C(=O)O1 (stereo partly drawn) [CBK017555] | 92.5
CS(=O)(=O)Nc1ccc2c(O)c(C(=O)NCc3ccc(Cl)cc3)c(=O)[nH]c2c1 [CBK017559] | 88.9
CCCN(Cc1cccs1)C1Cc2cc(OC)c(OC)cc2C1 [CBK017567C] | 96.8
CC(=O)Oc1cc(Cl)ccc1C(=O)Nc1nnc(C(F)(F)F)s1 [CBK017569] | 84
O=C(Nc1ccc(C(F)(F)F)cc1)C1=C(O)CN(c2ccc(Cl)cc2)C1=O [CBK017603] | 84.8
O=C(N[C@@H](Cc1ccc(OCc2ccc(Cl)cc2Cl)cc1)C(=O)O)C1CCCC1 [CBK017610] | 82.9
O=C1O[C@@H](CCl)CN1c1ccc(N2CCOCC2)c(F)c1 [CBK017613] | 105
O=C1CCCN1CCCNC(=O)C1(c2ccccc2)COc2ccccc21 (stereo not drawn) [CBK017653] | 92.3
CCCOc1ccc(C2(CCCCN3CCCC3)C(=O)Oc3ccc(C(C)(C)C)cc32)cc1 (stereo not drawn) [CBK017655C] | 99.1
CC(C)N(CCC(c1ccccc1)c1cc(Br)ccc1OCc1ccccc1)C(C)C (stereo not drawn) [CBK017656] | 79.4
Cc1cccc(C)c1NC(=O)C(C#N)C(=O)c1nn(-c2ccccc2)c2c1CSc1ccccc1-2 (stereo not drawn) [CBK017678] | 81.8
N#C/C(C(=O)Nc1ccccc1)=C(/O)c1nn(-c2ccccc2)c2c1CSc1ccccc1-2 [CBK017685] | 92.7
N#CC(C(=O)NC1CCCCC1)C(=O)c1nn(-c2ccccc2)c2c1CSc1ccccc1-2 (stereo not drawn) [CBK017690] | 103
C#CCNCCCOc1ccccc1Oc1ccccc1 [CBK017707C] | 94.2
CN1[C@@H]2CC[C@H]1C[C@@H](N1Cc3cc4ccccc4n3C1=O)C2 [CBK017722] | 124
Oc1ccc(CCNc2ncnc3[nH]cnc23)cc1 [CBK017724C] | 101
CC(NC(C)(C)C)C(O)COc1ccc(Cl)c2c1C1CCC2CC1 (stereo not drawn) [CBK017752C] | 89.6
CC(O)(CC(=O)O)CC(=O)OCCc1ccc2c(c1)CCC2 (stereo not drawn) [CBK017766] | 95.2

SMILES | viability at 28.5 h, 10 µM [%]
O=C(CCN1CCCCC1)Nc1ccc2c(=O)n3c(nc2c1)/C(=C/c1ccccc1)CC3 [CBK017786] | 94.1
Cc1cc2oc(=O)c3c(c2cc1C)CCN(C)C3 [CBK017803] | 97
CN1Cc2ccccc2-c2ccc(O)cc21 [CBK017804] | 97.2
CN1CCC2(CC1)SC(=O)Nc1ccc(Br)cc12 [CBK017821B] | 100
CCCN(CCc1ccc(C(F)(F)F)cc1)C1Cc2cc(OC)c(OC)cc2C1 [CBK017829C] | 103
O=C1CN(C(=O)c2cccc(Cl)c2)c2ccccc2N1 [CBK017844] | 101
O=C(O)CN1C(=O)S/C(=C\c2ccc([N+](=O)[O-])o2)C1=O [CBK017858] | 97.7
COc1cc(C(CC(C)NC(C)(C)C)c2ccccc2)ccc1OCc1ccccc1 (stereo not drawn) [CBK017901] | 79.8
Cc1ccc(OCc2ccccc2)c(C(CCN(C(C)C)C(C)C)c2ccccc2)c1 (stereo not drawn) [CBK017906] | 108
O=C(O)c1cc2cc(F)ccc2[nH]1 [CBK017929] | 86.3
CC(=O)NC[C@H]1CN(c2ccc(-c3nnc(C(C)O)s3)c(F)c2)C(=O)O1 (stereo partly drawn) [CBK017968] | 99.6
Cc1cc(N2C[C@H](CO)OC2=O)ccc1C#N [CBK017978] | 116
O=C(NCc1ccc(Cl)cc1)c1cnc2ccc(C#CCO)cc2c1O [CBK017979] | 92.4
O=C(Nc1n[nH]c2ccccc12)c1ccccc1 [CBK017993] | 90.1
CC1CCn2c3c(c4cccc1c42)CCNCC3 (stereo not drawn) [CBK018012C] | 97.4
CN1CCCN(Cc2ccc3c(c2)c(=O)c(C(=O)NCc2ccc(Cl)cc2)cn3C)CC1 [CBK018019] | 82.8
O=C(CSc1nc2ccccc2o1)N1c2ccccc2Sc2ccc(C(F)(F)F)cc21 [CBK018044] | 91.1
CC(C(=O)N1c2ccccc2Sc2ccccc21)N1C(=O)c2ccccc2C1=O (stereo not drawn) [CBK018045] | 105
OCCOCCN1CCN(C(S)=Nc2ccccc2)CC1 [CBK018046] | 84.7
CCCc1nc(NC(C)=O)c(C#N)c(-c2ccco2)c1CC [CBK018074] | 100
CN(C)CCOCCS(=O)(=O)c1ccc(N2CCC(c3ccc(Cl)cc3)=N2)cc1 [CBK018115] | 114
COC(=O)c1ccc(S(=O)(=O)C(F)(F)F)cc1N [CBK018172] | 114
O=C(NCCN1CCOCC1)c1sc2cc(F)ccc2c1Cl [CBK018212] | 120

SMILES | viability at 28.5 h, 10 µM [%]
CC(C)(Cc1ccccc1)NCC(O)COc1ccc2c(c1)C1CCC2C1 (stereo not drawn) [CBK018228C] | 86.4
CC(C)NC(=O)N1CCc2sccc2C1c1ccc(Cl)cc1 (stereo not drawn) [CBK018247] | 108
CSc1sc(C(=O)NC(=O)N2CCOCC2)c2c1-c1nocc1CC2 [CBK018284] | 74.3
COc1cc2c(cc1OC)/C(=C/c1ccc[nH]1)C(=O)N2 [CBK018342] | 57.7
O=C(O)c1sc2c(ccc3ccccc32)c1Br [CBK018387] | 90.4
CCOc1ccc(S(=O)(=O)NCCCN2CCOCC2)c2ccccc12 [CBK018421] | 89.8
CCCn1cc(C(=O)NCc2ccc(Cl)cc2)c(=O)c2cc(CN3CCOCC3)sc21 [CBK018478] | 93.8
CC(=O)NC[C@H]1CN(c2ccc3c(c2)CCN(C(C)=O)CC3)C(=O)O1 [CBK018491] | 86.6
CC(=O)NC[C@H]1CN(c2ccc3c(c2)CCN(C(=O)Oc2ccccc2)CC3)C(=O)O1 [CBK018498] | 91.2
CC(=O)NC[C@H]1CN(c2ccc3c(c2)CCN(C(=O)Cc2ccccc2)CC3)C(=O)O1 [CBK018499] | 111
CCN(CC)c1cc(N2CCCNCC2)ccc1S(=O)(=O)c1cccc(F)c1 [CBK018509C] | 101
O=C(Nc1ccc(O)cc1C(=O)O)c1cccc(Br)c1 [CBK018511] | 89.1
NCc1cnc2c(c1)CCC2 [CBK018584G] | 90.8
CCOC(=O)C1=NOC2COC3(CCN(c4ncccn4)CC3)OCC12 (stereo not drawn) [CBK018602] | 94.3
CCOC(=O)CSc1c2cc3c(nc2nc(=O)n1Cc1ccccc1)CC(C)(C)OC3 [CBK018608] | 94.3
Cc1c(Br)c(C(F)(F)F)nn1CC(=O)NCCN1CCOCC1 [CBK018700] | 107
Cc1cc(NC(=O)Cn2nc(C(F)(F)F)c(Cl)c2C)no1 [CBK018709] | 87.3
Cc1cccc(C(=O)N/N=C/c2ccoc2)c1O [CBK018727] | 90.7
Cc1[nH]c(=O)c(S(=O)(=O)c2ccccc2)c(C)c1Cl [CBK018736] | 83.1
Oc1ccc(C2N=C(c3ccccc3)N=C(c3ccccc3)N2)cc1 (stereo not drawn) [CBK018755] | 95.4
c1cc2c(cc1CNc1nnn[nH]1)OCO2 [CBK018783] | 91.5
CSc1cc(CC(C)(C)C)c2cccc(F)c2n1 [CBK018791] | 99.8

Same assay, conditions: human, hela cells, % viability, bulk resorufin, single well

SMILES | viability at 28.5 h, 10 µM [%]
CCCN(CCCc1ccccc1)C1Cc2cc(OC)c(OC)cc2C1 [CBK017596C] | 96.6
Cc1ccccc1N1C(=O)/C(=N\Nc2ccc(S(=O)(=O)O)cc2)C(=O)NC1=S [CBK018165] | 97.7
